Assay results: patent US20250129184A1, “TARGETED ANTICOAGULANT” (Northwestern University, priority 2016, published 2025)
Where no end group is shown, it is not given here.

Columns and labels:
fibrin = test: peptide binding to protein-coated polystyrene surfaces (fibrin); conditions: biotinylated peptide vs scrambled CERAK; protein 10 μg/cm^2; overnight; fluorophore-conjugated streptavidin
Experimental: (§1) During the development of embodiments of the technology provided herein, experiments were conducted to assess the binding specificity of the CREKA peptides towards fibrin and non-target components. […] Proteins were applied to uncoated polystyrene surfaces at 10 μg/cm^2 and washed with PBS three times to remove unbound protein. A range of concentrations of biotinylated CREKA and biotinylated CERAK were incubated with the treated surfaces overnight, then washed three times the next day to remove the unbound peptides. The peptides remaining on the protein-coated surfaces were quantified using fluorophore-conjugated streptavidin. […] These properties of the heparin-CREKA compounds indicate that heparin-CREKA is appropriate for administration by intravenous injection.

albumin = albumin (Homo sapiens, UniProt P02768); test: peptide binding to protein-coated polystyrene surfaces (albumin); conditions: biotinylated peptide; common blood plasma protein
Experimental: as §1

fibrinogen = biological target: T1, fibrinogen (Homo sapiens, UniProt P02671+P02675+P02679); test: peptide binding to protein-coated polystyrene surfaces (fibrinogen); conditions: biotinylated peptide; common blood plasma protein
T1 sequence (P02671 20-629 limits assumed): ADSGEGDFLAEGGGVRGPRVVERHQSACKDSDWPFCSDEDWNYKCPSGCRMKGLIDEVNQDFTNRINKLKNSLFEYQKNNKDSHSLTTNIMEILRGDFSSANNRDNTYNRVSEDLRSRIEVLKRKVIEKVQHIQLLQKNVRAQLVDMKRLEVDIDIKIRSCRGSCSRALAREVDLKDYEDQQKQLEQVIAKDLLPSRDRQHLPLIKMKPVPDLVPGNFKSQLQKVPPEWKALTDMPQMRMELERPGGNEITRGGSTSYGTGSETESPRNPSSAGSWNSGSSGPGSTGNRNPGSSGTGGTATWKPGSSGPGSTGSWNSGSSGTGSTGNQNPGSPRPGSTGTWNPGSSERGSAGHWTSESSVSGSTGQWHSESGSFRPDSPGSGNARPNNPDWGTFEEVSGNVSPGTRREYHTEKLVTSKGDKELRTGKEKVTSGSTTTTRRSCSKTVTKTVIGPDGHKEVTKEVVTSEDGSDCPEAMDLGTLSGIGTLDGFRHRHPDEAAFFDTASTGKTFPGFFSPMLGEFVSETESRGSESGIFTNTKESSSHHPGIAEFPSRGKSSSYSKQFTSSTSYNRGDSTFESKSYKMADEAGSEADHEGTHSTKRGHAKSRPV
T1 sequence (P02675 31-491): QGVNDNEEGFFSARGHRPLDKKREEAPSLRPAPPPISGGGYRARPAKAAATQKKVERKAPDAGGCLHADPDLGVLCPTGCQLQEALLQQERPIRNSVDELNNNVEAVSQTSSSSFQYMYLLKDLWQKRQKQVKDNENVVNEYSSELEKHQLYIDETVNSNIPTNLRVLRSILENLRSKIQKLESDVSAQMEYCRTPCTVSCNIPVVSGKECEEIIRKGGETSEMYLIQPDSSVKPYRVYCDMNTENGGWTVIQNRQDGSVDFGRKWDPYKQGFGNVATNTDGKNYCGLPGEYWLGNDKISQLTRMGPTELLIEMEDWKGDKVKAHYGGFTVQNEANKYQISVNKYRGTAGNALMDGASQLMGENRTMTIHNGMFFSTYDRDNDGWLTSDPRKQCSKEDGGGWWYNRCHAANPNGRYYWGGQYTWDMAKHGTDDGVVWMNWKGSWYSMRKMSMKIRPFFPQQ
T1 sequence (P02679 27-433 limits assumed): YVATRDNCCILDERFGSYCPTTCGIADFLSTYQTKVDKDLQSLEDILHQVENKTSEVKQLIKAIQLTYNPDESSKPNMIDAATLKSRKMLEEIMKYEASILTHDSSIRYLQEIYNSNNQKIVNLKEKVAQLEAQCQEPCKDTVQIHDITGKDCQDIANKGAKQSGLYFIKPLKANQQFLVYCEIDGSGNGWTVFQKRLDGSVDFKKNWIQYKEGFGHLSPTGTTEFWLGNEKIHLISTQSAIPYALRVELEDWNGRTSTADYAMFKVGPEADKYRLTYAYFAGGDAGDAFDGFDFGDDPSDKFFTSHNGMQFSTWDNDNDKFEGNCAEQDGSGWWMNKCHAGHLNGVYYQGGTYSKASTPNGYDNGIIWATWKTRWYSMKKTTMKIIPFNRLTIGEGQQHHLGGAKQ
Experimental: as §1

Pig whole blood = test: whole blood clotting assay on fibrin coated plates; type: cell-based; conditions: fibrin coated 96-well plates pre-treated 30 minutes, washed three times with PBS; re-calcified blood; absorbance 405 nm
Experimental: During the development of embodiments of the technology provided herein, experiments were conducted to test the anti-coagulant activity of embodiments of the heparin-CREKA compounds described herein. In particular, the heparin-CREKA compounds were evaluated by a whole blood clotting assay and a platelet adhesion assay (FIGS. 4 and 5). Pig whole blood was collected into acid citrate dextrose (ACD) anticoagulant. Fibrin coated 96-well plates were pre-treated with phosphate-buffered saline (PBS), heparin, or heparin-CREKA for 30 minutes at room temperature, then followed with three washes with PBS prior to the test. The wash removes unbound heparin or heparin-CREKA from the surfaces. Control experiments included tests of tissue culture treated and untreated polystyrene 96 well plates. […] The coagulation process was monitored at each selected time point by adding 150 μl of deionized water into each well to lyse the unclotted red blood cells. The lysate was then transferred into a new plate and the absorbance was measured at a wavelength of 405 nm. Higher absorbance represents more unclotted red blood cells and better anti-coagulation effect. The anti-coagulant effect of heparin-CREKA was detected up to 60 minutes while the effect of the conventional heparin was undetectable 20 minutes after contacting the blood (FIG. 4).

[1] = system: ePTFE graft in abdominal aorta; test: rat abdominal aorta interposition model with ePTFE graft; type: in vivo, Sprague Dawley rats; conditions: two intravenous doses, 24 hours; middle_3 and distal segments
Experimental: During the development of embodiments of the technology provided herein, experiments were conducted to evaluate the in vivo performance of the heparin-CREKA relative to conventional clinically used heparin. In particular, heparin-CREKA was studied in a rat abdominal aorta interposition model. Briefly, male Sprague Dawley rats (200-500 g) were anesthetized by a ketamine/xylazine cocktail. The abdomen of the anesthetized rat was entered through a midline incision. The abdominal aorta was exposed (FIG. 7, Panel A), clamped in both proximal and distal regions using micro-vessel clips, and then excised between the clamps (FIG. 7, Panel B). A segment (e.g., approximately 1 cm in length; 1.524±0.05 mm in diameter) of expanded polytetrafluoroethylene (ePTFE) was used as a graft. The graft was connected to the abdominal aorta using an end-to-end anastomosis technique with interrupted stitches at each end (FIG. 7, Panel C). Following reperfusion of blood flow through the graft, one dose of anti-coagulant (heparin or heparin-CREKA) was given systemically via intravenous injection. The incision was then closed in layers. 24 hours after the initial implantation surgeries and immediately prior to sacrifice of the test […], a second dose of […] (heparin or heparin-CREKA) was administered systemically via intravenous injection. […]

platelets = test: platelet adhesion assay using platelet-rich plasma on fibrin surfaces; type: cell-based; conditions: compared to bare fibrin surface; at a lower concentration than heparin; PRP 1:10, 37° C., 60 minutes; LDH readout
Experimental: Next, during the development of embodiments of the technology provided herein, experiments were conducted to test the anticoagulation activity of embodiments of the heparin-CREKA compounds described herein. In particular, a platelet adhesion assay was performed using platelet-rich plasma (PRP). Surfaces were treated with various concentrations of heparin or heparin-CREKA as described above. PRP, diluted 1:10 in PBS, was incubated at 37° C. for 60 minutes with the samples and gently rinsed with warm PBS. The number of adherent platelets was determined by detecting the amount of lactate dehydrogenase (LDH) present after cell lysis. Briefly, adherent platelets were lysed by incubation with 2% Triton-PSB buffer for 30 minutes at 37° C. A colorimetric substrate for LDH was added and incubated for 20 minutes at 37° C. The optical density was measured at a wavelength of 490 nm. A calibration curve was generated from a series of serial dilutions of a known platelet concentration and used to determine the number of adhered platelets.

graft site = test: in vivo dosing studies, anti-coagulant effect at the graft site by imaging
Experimental: During the development of embodiments of the technology provided herein, experiments were conducted to study the in vivo binding and pharmacology response of the embodiments of heparin-CREKA. In particular, data were collected from three animal studies in which the dosing period was varied. Study 1—animals were scarified 24 hours after the initial surgery and 2 doses of heparin-CREKA or control heparin-CERAK were administrated by intravenous injection during the 24 hour period. The first dose was administered immediately after the surgery (e.g., after re-establishing blood flow at the graft area). The second dose was administered 6 hours prior to euthanizing the animal. Imaging data were collected and analyzed to evaluate the anti-coagulant effect of heparin-CREKA at the graft site. […] Study 2—animals were kept alive for 7 days after surgery and one dose of heparin-CREKA or control heparin-CERAK was administrated by intravenous injection immediately after the surgery (e.g., after re-establishing blood flow at the graft area). In contrast to Study 1, no additional dose was given after the first dose. Imaging data were collected and analyzed to evaluate the anti-coagulant effect of heparin-CREKA at the graft site. […] Study 3—animals were kept alive for 7 days after surgery and two doses of heparin-CREKA or control heparin-CERAK were administrated by intravenous injection during the 7 day period. The first dose was administered immediately after the surgery (e.g., after re-establishing blood flow at the graft area). The second dose was administered 6 hours before euthanizing the animal. Imaging data were collected and analyzed to evaluate the anti-coagulant effect of heparin-CREKA at the graft site.

| Substance | CREKA-fibrin binding (fibrin) | binding to albumin (albumin) | binding to fibrinogen (fibrinogen) | time for which the anti-coagulant effect was detected after contacting the blood (Pig whole blood) | clotting in the grafts (histology) [1] | amount of adhered platelets (platelets) | anti-coagulant effect at the graft site relative to heparin-CERAK (graft site; Study 1: 24 hours, 2 intravenous doses (after surgery and 6 hours prior to euthanizing)) | anti-coagulant effect at the graft site relative to heparin-CERAK (graft site; Study 2: 7 days, one intravenous dose immediately after surgery) | anti-coagulant effect at the graft site relative to heparin-CERAK (graft site; Study 3: 7 days, two intravenous doses (after surgery and 6 hours before euthanizing)) |
| --- | --- | --- | --- | --- | --- | --- | --- | --- | --- |
| Cys-Arg-Glu-Lys-Ala (CREKA; also: biotinylated, site not given here) [tested in biotinylated form] | highly specific | very weakly | very weakly |  |  |  |  |  |  |
| heparin [reference compound] |  |  |  | < 20 min | major clotting |  |  |  |  |
| heparin-CREKA: heparin covalently linked through a BMPH linker to the fibrin binding peptide Cys-Arg-Glu-Lys-Ala (CREKA) (also: heparin linked via BMPH linker, site not given here) |  |  |  | up to 60 minutes | remained clean | significantly reduced | significant improvement | only a very small difference | significant improvement |
